From publication PMC3446931, “Cyclohexyl Ketone Inhibitors of Pin1 Dock in a Trans-Diaxial Cyclohexane Conformation” (PLoS ONE, 2012) come the findings set out here.

This assay concerns the target Pin1 (Homo sapiens, UniProt Q13526). Nature of the assay: alpha-chymotrypsin protease-coupled PPIase assay. It counts as biochemical.

Sequence of Pin1 (Q13526 whole entry): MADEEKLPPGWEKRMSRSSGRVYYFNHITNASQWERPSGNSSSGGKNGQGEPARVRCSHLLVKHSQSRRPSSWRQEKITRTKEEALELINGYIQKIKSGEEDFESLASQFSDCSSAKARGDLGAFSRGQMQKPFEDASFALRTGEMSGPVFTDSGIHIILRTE

A word on the IC50: it is the midpoint of a concentration-inhibition curve. A high value points to weaker potency in that assay. `CC(=O)NC(COP(=O)(O)O)C(=O)C1CCCCC1C(=O)NCCc1c[nH]c2ccccc12` (racemic) [rac-2] displayed a half-maximal inhibitory concentration (IC50) of 61 ± 8 µM.

For the compound `CC(=O)N[C@@H](COP(=O)(O)O)C(=O)[C@@H]1CCCC[C@H]1C(=O)NCCc1c[nH]c2ccccc12` [compound 1, 1], inhibition was half-maximal at 260 ± 30 µM (IC50).
